{"source": "patent US5919811A", "about": "“3-Substituted-indole-2-carboxylic acid derivatives as excitatory amino acid antagonists” (Glaxo Wellcome S.p.A., priority 1995, dated 1999)", "key": {"[1]": {"target": "T1, strychnine insensitive glycine binding site located on the NMDA receptor complex (Rattus norvegicus, UniProt P35439)", "T1 construct": "from tissue; host or cells: central nervous system membranes, rat", "test": "affinity for strychnine insensitive glycine binding site located on the NMDA receptor complex (procedure of Kishimoto H. et al)", "protocol": "The potent and selective action of the compound of the invention at the strychnine- insensitive glycine binding site present on the NMDA receptor complex may be readily determined using conventional test procedures. Thus the ability to bind at the strychnine insensitive glycine binding site was determined using the procedure of Kishimoto H et al. J Neurochem 1981, 37 1015-1024. The selectivity of the action of compounds of the invention for the strychnine insensitive glycine site was confirmed in studies at other ionotropic known excitatory amino acid receptors.\nThe affinity of a compound of the invention for strychnine insensitive glycine binding site located on the NMDA receptor complex was determined using the procedure of Kishimoto H. et al J. Neurochem 1981, 37, 1015-1024. The pKi with representative compounds of the invention are given in […]"}, "NMDA induced convulsions": {"test_system": "NMDA induced convulsions", "test": "inhibition of NMDA induced convulsions in the mouse (procedure of Chiamulera C et al)", "assay_type": "in vivo", "settings": "iv, 0.1 mg/kg I.V., generalized seizures induced by intracerebroventricular injection of NMDA in mice", "protocol": "The ability of compounds of the invention to inhibit NMDA induced convulsions in the mouse was determined using the procedure of Chiamulera C et al. Psychpharmacology 1990, 102,-551-552. In this test the ability of the compound to inhibit the generalized seizures induced by an intracerebroventricular injection of NMDA in mice was examined. Thus the % inhibition of the NMDA induced convulsions when a compound of the invention was given the dose of 0.1 mg/kg I.V. was determined and representative results obtained for compounds of the invention are given in the following table."}}, "note": "Counter-ions that a name gives are not always drawn."}
{"compound": "NC(=O)NCc1ccc(NC(=O)/C=C/c2c(C(=O)O)[nH]c3cc(Cl)cc(Cl)c23)cc1", "note": "[Example 8, (E)4,6-dichloro-3-[2'-(4'-ureidomethylphenylcarbamoyl)ethenyl]-1-H-indole2-carboxylic acid]", "values": [{"measurement": "Ki", "setting": "[1]", "value": 2.51, "unit": "nM"}]}
{"compound": "NC(=O)NCc1ccc(NC(=O)/C=C/c2c(C(=O)O)[nH]c3cc(Cl)cc(Cl)c23)cc1", "note": "[Example 9, (E)4,6-dichloro-3-[2'-(4'-ureidomethylphenylcarbamoyl)ethenyl]-1-H-indole 2-carboxylic acid,sodium salt]", "values": [{"measurement": "inhibition in vivo at 0.1 mg/kg", "setting": "NMDA induced convulsions", "value": 60, "unit": "%"}]}
{"compound": "CCNC(=O)NCc1ccc(NC(=O)/C=C/c2c(C(=O)O)[nH]c3cc(Cl)cc(Cl)c23)cc1", "note": "[Example 12, (E)4,6-dichloro-3-[2'-(4'-ethylureidomethylphenylcarbamoyl)ethenyl]-1-H-indole 2-carboxylic acid,sodium salt]", "values": [{"measurement": "inhibition in vivo at 0.1 mg/kg", "setting": "NMDA induced convulsions", "value": 50, "unit": "%"}]}
{"compound": "CCNC(=S)NCc1ccc(NC(=O)/C=C/c2c(C(=O)O)[nH]c3cc(Cl)cc(Cl)c23)cc1", "note": "[Example 14, (E)4,6-dichloro-3-[2'-(4'-ethylthioureidomethylphenylcarbamoyl)ethenyl]-1-H-indole 2-carboxylic acid]", "values": [{"measurement": "inhibition in vivo at 0.1 mg/kg", "setting": "NMDA induced convulsions", "value": 30, "unit": "%"}]}
{"compound": "O=C(/C=C/c1c(C(=O)O)[nH]c2cc(Cl)cc(Cl)c12)Nc1ccc(CNC(=O)Nc2ccccc2)cc1", "note": "[Example 16, (E)4,6-dichloro-3-[2'-(4'-phenylureidomethylphenylcarbamoyl)ethenyl]-1-H-indole 2-carboxylic acid]", "values": [{"measurement": "Ki", "setting": "[1]", "value": 20, "unit": "nM"}, {"measurement": "inhibition in vivo at 0.1 mg/kg", "setting": "NMDA induced convulsions", "value": 30, "unit": "%"}]}
{"compound": "NC(=O)NCCc1ccc(NC(=O)/C=C/c2c(C(=O)O)[nH]c3cc(Cl)cc(Cl)c23)cc1", "note": "[Example 19, 4,6-dichloro-3-[(E)-2'-(4'-ureidoethylphenylcarbamoyl)ethenyl]-1-H-indole 2-carboxylic acid,sodium salt]", "values": [{"measurement": "inhibition in vivo at 0.1 mg/kg", "setting": "NMDA induced convulsions", "value": 30, "unit": "%"}]}
{"compound": "NC(=O)Nc1ccc(NC(=O)/C=C/c2c(C(=O)O)[nH]c3cc(Cl)cc(Cl)c23)cc1", "note": "[Example 21, 4,6-dichloro-3-[(E)-2'-(4'-ureidophenylcarbamoyl)ethenyl]-1-H-indole2-carboxylic acid,]", "values": [{"measurement": "Ki", "setting": "[1]", "value": 1.82, "unit": "nM"}]}
{"compound": "O=C(/C=C/c1c(C(=O)O)[nH]c2cc(Cl)cc(Cl)c12)Nc1ccc(NC(=O)Nc2ccccc2)cc1", "note": "[Example 24, (E)-4,6-dichloro-3-[2'-(4'-phenyl-ureido-phenylcarbamoyl)ethenyl]-1H-indole-2-carboxylic acid]", "values": [{"measurement": "Ki", "setting": "[1]", "value": 39.8, "unit": "nM"}]}
{"compound": "CN(C)C(=O)Nc1ccc(NC(=O)/C=C/c2c(C(=O)O)[nH]c3cc(Cl)cc(Cl)c23)cc1", "note": "[Example 27, (E)-4,6-dichloro-3-[2'-(4'-dimethyl-ureido-phenylcarbamoyl)ethenyl]-1H-indole-2-carboxylic acid]", "values": [{"measurement": "Ki", "setting": "[1]", "value": 3.89, "unit": "nM"}]}
{"compound": "O=C(/C=C/c1c(C(=O)O)[nH]c2cc(Cl)cc(Cl)c12)Nc1ccc(CNC(=O)NC2CC2)cc1", "note": "[Example 31, (E)-4,6-dichloro-3-[-2'-(4'-cyclopropyl-ureido-methyl-phenylcarbamoyl)vinyl]-1H-indole-2-carboxylic acid sodium salt]", "values": [{"measurement": "inhibition in vivo at 0.1 mg/kg", "setting": "NMDA induced convulsions", "value": 40, "unit": "%"}]}
{"compound": "NC(=O)NCc1cccc(NC(=O)/C=C/c2c(C(=O)O)[nH]c3cc(Cl)cc(Cl)c23)c1", "note": "[Example 34]", "values": [{"measurement": "Ki", "setting": "[1]", "value": 2.45, "unit": "nM"}]}
{"compound": "COc1ccc(NC(=O)NCc2ccc(NC(=O)/C=C/c3c(C(=O)O)[nH]c4cc(Cl)cc(Cl)c34)cc2)cc1", "note": "[Example 37, (E)-4,6-dichloro-3-{2'-[4'-(4\"-methoxy-phenyl-ureidomethyl)-phenylcarbamoyl]ethenyl}-1H-indole-2-carboxylic acid]", "values": [{"measurement": "inhibition in vivo at 0.1 mg/kg", "setting": "NMDA induced convulsions", "value": 50, "unit": "%"}]}
{"compound": "O=C(/C=C/c1c(C(=O)O)[nH]c2cc(Cl)cc(Cl)c12)Nc1ccc(CNC(=O)NC2CCOCC2)cc1", "note": "[Example 39]", "values": [{"measurement": "Ki", "setting": "[1]", "value": 9.12, "unit": "nM"}]}
{"compound": "O=C(/C=C/c1c(C(=O)O)[nH]c2cc(Cl)cc(Cl)c12)Nc1ccc(CNC(=O)NC2CCOCC2)cc1", "note": "[Example 40, sodium salt]", "values": [{"measurement": "inhibition in vivo at 0.1 mg/kg", "setting": "NMDA induced convulsions", "value": 40, "unit": "%"}]}
{"compound": "CCOC(=O)CNC(=O)NCc1ccc(NC(=O)/C=C/c2c(C(=O)OCC)[nH]c3cc(Cl)cc(Cl)c23)cc1", "note": "[Example 43]", "values": [{"measurement": "inhibition in vivo at 0.1 mg/kg", "setting": "NMDA induced convulsions", "value": 40, "unit": "%"}]}
{"compound": "O=C(O)CNC(=O)NCc1ccc(NC(=O)/C=C/c2c(C(=O)O)[nH]c3cc(Cl)cc(Cl)c23)cc1", "note": "[Example 44, (E)-4,6-dichloro-3-[2'-(4'-carboxymethylureido-methyl-phenylcarbamoyl)ethenyl]-1H-indole-2-carboxylic acid]", "values": [{"measurement": "inhibition in vivo at 0.1 mg/kg", "setting": "NMDA induced convulsions", "value": 40, "unit": "%"}]}
{"compound": "O=C(/C=C/c1c(C(=O)O)[nH]c2cc(Cl)cc(Cl)c12)Nc1ccc(NC(=O)NC2CC2)cc1", "note": "[Example 50, 4,6-dichloro-3-[(E)-2'-(4'-cyclopropylureidophenylcarbamoyl)ethenyl]-1-H-indole-2-carboxylic acid sodium salt]", "values": [{"measurement": "Ki", "setting": "[1]", "value": 3.16, "unit": "nM"}]}
{"compound": "O=C(/C=C/c1c(C(=O)O)[nH]c2cc(Cl)cc(Cl)c12)Nc1ccc(NC(=O)Nc2cccnc2)cc1", "note": "[Example 51, 4,6-dichloro-3-[(E)-2'-(4'-nicotin-3-ylureidophenylcarbamoyl)ethenyl]-1-H-indole2-carboxylic acid]", "values": [{"measurement": "Ki", "setting": "[1]", "value": 3.89, "unit": "nM"}]}
{"compound": "O=C(/C=C/c1c(C(=O)O)[nH]c2cc(Cl)cc(Cl)c12)Nc1ccc(NC(=O)NC2CCOCC2)cc1", "note": "[Example 52, 4,6-dichloro-3-[(E)-2'-(4'-(-tetrahydropyran-4\"-yl)-ureidophenylcarbamoyl)ethenyl]-1-H-indole-2-carboxylic acid sodium salt]", "values": [{"measurement": "Ki", "setting": "[1]", "value": 5.01, "unit": "nM"}]}
